A word on the IC50: it is the concentration at which inhibition is half-maximal.

Results on two compounds are retold here after patent publication US12297192B2, “Crystal form of pyrimidine sulfonamide compound and preparation method therefor” (WUXI BIOCITY BIOPHARMACEUTICS CO., LTD., priority 2019, dated 2025).

For data set [1], the target named is T1, Human Pregnane X Receptor (PXR) (Homo sapiens, UniProt O75469).
T1 construct: host or cells: DPX2 cells
T1 sequence (O75469 1-434): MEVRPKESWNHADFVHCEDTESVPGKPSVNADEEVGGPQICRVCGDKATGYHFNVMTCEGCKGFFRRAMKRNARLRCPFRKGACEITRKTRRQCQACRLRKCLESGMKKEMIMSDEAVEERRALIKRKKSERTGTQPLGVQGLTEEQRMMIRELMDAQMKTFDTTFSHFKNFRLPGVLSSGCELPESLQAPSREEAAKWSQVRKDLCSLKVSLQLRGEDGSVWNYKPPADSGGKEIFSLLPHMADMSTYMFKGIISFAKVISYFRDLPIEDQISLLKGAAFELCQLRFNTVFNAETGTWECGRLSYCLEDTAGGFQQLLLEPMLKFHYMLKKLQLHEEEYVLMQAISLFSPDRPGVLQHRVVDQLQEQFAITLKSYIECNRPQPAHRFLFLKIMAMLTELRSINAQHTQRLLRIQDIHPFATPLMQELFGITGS
In words: Human pregnane X receptor (PXR) test, induction of PXR-mediated CYP3A expression in DPX2 cells. The data set is classed as in vitro ADME. The procedure: To assess the induction of PXR-mediated CYP3A expression by the compounds.
Experimental Protocol: • 1. The DPX2 cells was thawed under aseptic conditions. • 2. The DPX2 cytosol was distributed in 96-well plates (100 μl/well) and placed the plates in a 5% CO2/37° C. incubator overnight. • 3. The quantitative feeding medium was thawed in a 37° C. water bath. The positive control rifampicin was thawed at room temperature. A series of the test compound and positive control dilutions were prepared in quantitative feeding medium. The medium was carefully aspirated and discarded from each well, without disturbing the cells during the aspiration process. […] Enzyme activity test: • (1) 7 μl of Luciferin-IPA was added to 7 ml of quantitative feeding medium, inverted to mix, and poured into the Luciferin-IPA reagent tank. • (2) The 96-well plate was taken out of the incubator and the medium was carefully aspirated from each well. […] The plate was placed back to the incubator for 60 minutes. • (7) 40 μl of Luciferin detection reagent/P450-Glo buffer was added to each well of the replicate plate, stirred and incubated for 20 minutes at room temperature. • (8) After incubation with Luciferin detection reagent for 20 minutes, a luminometer (set for 1-5 seconds. Read out time) was used to determine the luminescence of each well of the white 96-well plate. […] The fluorescence intensity of each well was measured. […]

In data set [2] the target is T2, bile salt export pump (BSEP) (Homo sapiens, UniProt O95342).
T2 construct: purchased Solvo Biotechnology SB-BSEP-Hi5-VT; host or cells: Hi5 insect cells (read from the product name), membrane vesicles
T2 sequence (O95342 whole entry): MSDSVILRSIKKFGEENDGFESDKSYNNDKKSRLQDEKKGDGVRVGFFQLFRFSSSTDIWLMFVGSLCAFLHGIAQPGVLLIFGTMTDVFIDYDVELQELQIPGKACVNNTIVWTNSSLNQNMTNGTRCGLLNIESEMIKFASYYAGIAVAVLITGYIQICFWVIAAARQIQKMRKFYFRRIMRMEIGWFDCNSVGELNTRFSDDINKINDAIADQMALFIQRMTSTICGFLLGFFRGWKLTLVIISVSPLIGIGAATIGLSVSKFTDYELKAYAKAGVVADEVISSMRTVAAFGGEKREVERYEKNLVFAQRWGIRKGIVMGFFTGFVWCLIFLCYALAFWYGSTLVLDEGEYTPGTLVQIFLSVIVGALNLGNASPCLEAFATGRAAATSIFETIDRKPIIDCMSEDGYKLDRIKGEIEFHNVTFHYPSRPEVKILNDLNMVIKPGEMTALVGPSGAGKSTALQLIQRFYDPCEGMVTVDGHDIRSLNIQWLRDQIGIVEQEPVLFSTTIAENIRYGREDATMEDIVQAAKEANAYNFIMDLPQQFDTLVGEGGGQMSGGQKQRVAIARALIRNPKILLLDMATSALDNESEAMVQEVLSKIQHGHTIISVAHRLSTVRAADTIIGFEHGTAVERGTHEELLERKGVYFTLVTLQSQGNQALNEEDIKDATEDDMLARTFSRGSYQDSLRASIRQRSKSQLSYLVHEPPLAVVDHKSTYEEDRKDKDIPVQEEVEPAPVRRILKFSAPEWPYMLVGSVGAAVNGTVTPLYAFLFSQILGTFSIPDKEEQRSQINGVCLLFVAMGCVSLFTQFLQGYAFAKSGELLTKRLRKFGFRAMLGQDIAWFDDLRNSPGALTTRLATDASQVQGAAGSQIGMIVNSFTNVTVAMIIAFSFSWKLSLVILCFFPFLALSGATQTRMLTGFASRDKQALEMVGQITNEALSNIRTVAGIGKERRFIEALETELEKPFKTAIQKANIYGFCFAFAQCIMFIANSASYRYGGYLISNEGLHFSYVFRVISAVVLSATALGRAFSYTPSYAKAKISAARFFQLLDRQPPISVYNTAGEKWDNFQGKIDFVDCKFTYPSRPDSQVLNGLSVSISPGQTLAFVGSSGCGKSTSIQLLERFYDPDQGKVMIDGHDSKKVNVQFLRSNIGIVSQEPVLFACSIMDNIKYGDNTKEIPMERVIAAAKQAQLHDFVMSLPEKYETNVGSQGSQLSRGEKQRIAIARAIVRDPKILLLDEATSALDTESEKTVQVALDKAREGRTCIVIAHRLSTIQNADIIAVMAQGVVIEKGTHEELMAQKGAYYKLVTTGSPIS
Briefly: Inhibition test on bile salt export pump (BSEP), taurocholic acid uptake in BSEP-Hi5-VT vesicles. The data set is classed as in vitro ADME.
Procedure: Compounds were diluted to 100 mM with DMSO; then subjected to a serial dilution of 3-fold for eleven dilutions. The minimum concentration was 0.169 μM. • 2. […] The minimum concentration was 19.5 μM. Experimental Protocol: • 1. ECHO was used to transfer 0.3 μl of DMSO solution of the compounds or diluted DMSO to the corresponding wells of the compounds plate, respectively. • 2. 14.7 μl of ATP Buffer was added into the corresponding wells of the compounds and the zero percent effect (ZPE), respectively. • 3. 14.7 μl of AMP Buffer was added into the corresponding wells of the hundred percent effect (HPE). • 4. The plate was shaken for 10 minutes at 25° C. • 5. 15 μl of BSEP-Hi5-VT Vesicle solution was added to each well separately and the plate was shaken for a further 40 minutes at 25° C. • 6. 5 μl of 0.5 M Ethylenediaminetetraacetic acid (EDTA) solution was immediately added to each well, followed by 65 μl of Buffer B. All reactions were complete. • 7. After the reactions were complete, 95 μl of liquid was transferred from the compounds plate to the filter plate using apparatus. • 8. The liquid receiving plate was placed under the filter plate. Then the liquid was removed using a centrifuge. The liquid on the receiving plate was discarded. • 9. 90 μl of Buffer B was added to the filter plate. The liquid receiving plate was placed under the filter plate. Then the liquid was removed using a centrifuge. The liquid on the receiving plate was discarded. The filter plate was washed three times in total. • 10. The filter plate was left to dry overnight. • 11. On the next day, 80 μl of methanol/water (80/20, v/v) solution was added to the filter plate. • 12. The plate was vibrated for 15 minutes after applying the film to the filter plate. • 13. […] Taurocholic acid in the receiving plate was determined using LC/MS/MS.
Several concentrations were tested in each experiment and the data was analyzed using Prism to produce a concentration-response curve to calculate the IC50 values of the compounds.

On to `COCCNS(=O)(=O)Nc1ncnc(OCCOc2ncc(Br)cn2)c1-c1ccc2c(c1)OCO2` [Compound of formula (I)], for which, in data set [1], the “Induction of PXR-mediated CYP3A expression (in words)” value is on record as “weak induction”. Also, the “Inhibitory effect on bile salt export pump (in words)” value in data set [2] is “extremely weak inhibitory effect”.

For `CCCNS(=O)(=O)Nc1ncnc(OCCOc2ncc(Br)cn2)c1-c1ccc(Br)cc1` [Macitentan, reference compound], the “Induction of PXR-mediated CYP3A expression (in words)” value in data set [1] was “strong induction”. Further, the “Inhibitory effect on bile salt export pump (in words)” value in data set [2] was “strong inhibitory effect”. Also, the 50% inhibitory concentration (IC50) in data set [2] (taurocholic acid substrate, BSEP-Hi5-VT vesicles) is 470 nM.
